{"source": "patent US11999737B2", "about": "“Kinase inhibitors and related methods of use” (Duke University, priority 2014, dated 2024)", "key": {"RLC20 phosphorylation [1]": {"system": "RLC20 phosphorylation", "assay": "RLC20 phosphorylation in serum-starved aortic smooth muscle cells", "type": "cell-based, mouse", "details": "30 min", "description": "A, Typical myograph force trace showing the effect of HS38 on intact mouse aorta contractility. The maximum contractile force of PE-induced contraction was reduced by approximately 30% when HS38 (10 μM) was added five minutes prior to PE addition and by approximately 40% when added ten minutes after PE addition. B, Serum-starved aortic SM cells were treated with SIP (0.25 μM) and HS-38 (±50 μM) for 30 min.\nFor Western blots, tissues and cultured cells were lysed in 1% SDS, NaCl (300 mM), Tris-HCl (50 mM, pH 7.5), subjected to SDS-PAGE, transferred to polyvinylidene difluoride membrane (Millipore) and visualized using the Odyssey System (Li-Cor). For Odyssey imaging, the membranes were blocked with Odyssey Blocking Buffer and then subjected to anti-MYPT1 (1:2,000) (BD Transduction), phospho-MYPT1 (Thr696) (1:1,000) (Millipore), RLC20 (1:2000) (Sigma) and phospho-RLC20 (1:1000) (Cell Signaling Technology) antibodies. Antibodies were diluted in appropriate blocking buffer. The membranes were washed in TBS with 0.05% Tween 20. Primary antibodies were visualized using secondary antibodies conjugated to Alexa 680 (Invitrogen) or IRDye800 (Li-Cor).\nCell Culture: Mouse aortic SM cells were prepared. The cell line was cultured in AmnioMax medium (Gibco) supplemented with 10% embryonic stem cell-qualified fetal bovine serum (Invitrogen) and penicillin-streptomycin (Invitrogen). […]"}, "RLC20 phosphorylation [2]": {"system": "RLC20 phosphorylation", "assay": "Western blot of RLC20 phosphorylation in Ca2+-sensitized rabbit ileum", "details": "HS38 50 μM", "description": "To examine the effect of ZIPK inhibition on sensitized force, muscle strips were stimulated with an intermediate calcium concentration solution (pCa 6.5). Once force reached a plateau, strips were Ca^2+-sensitized by the addition of the agonist carbachol (5 μM). Up to 2 μM of GTP was added together with the sensitizing agonist to compensate for possible loss of GTP during permeabilization. At the plateau of Ca-sensitized force (5-10 min upon stimulation), the ZIPK inhibitor, HS38 (50 μM) or diluent (0.1% DMSO) was added and the force relaxation time course was recorded. Tissue samples were frozen 20 min after the addition of HS38 for biochemical assays of RLC20 and MYPT1 phosphorylation.\nMYPT1 and RLC20 phosphorylation: To examine the phosphorylation of MYPT1 and RLC20, rabbit ileum SM strips were treated as described above and previously reported. (Gong et al. (1995), J. Physiol.-London 486, 113-122; Kitazawa et al. (1989) J. Biol. Chem. 264, 5339-5342; Kobayashi et al. (1991) Am. J. Physiol. 260, C364-C370), Following the stimulation protocols, muscle strips were immediately frozen by immersion in −80° C. acetone with trichloroacetic acid (10% w/v) and stored at −80° C. […] Phosphorylation of MYPT1 Thr696 and of RLC20 was determined by SDS-PAGE and Western blotting. […]"}, "[3]": {"system": "posterior cerebral arteries of spontaneous hypertensive rat (SHR)", "assay": "Pressure myography of posterior cerebral arteries of SHR, enhanced myogenic tone", "details": "HS-38 10 μM, 10-wk SHR", "from_the_text": "Data are means (n=2 animals) for size-matched vessels from 10-wk SHR rats. The average maximum passive diameters at 120 mmHg were 280 μm. Representative pressure-induced changes in arteriolar diameter (A) as well as mean diameter-pressure relationships (B) and active myogenic constriction (C) are shown.\nPosterior cerebral arteries (PCAs) from male Sprague-Dawley rats were isolated and mounted/cannulated for pressure myography. Briefly, 2-3 mm arterial segments are mounted across glass canuli in an arteriograph chamber attached to a pressure myograph (Living Systems, Burlington, Vt. USA) and tied in place using silk suture. Endothelial cells are removed by passing a stream of air bubbles through the vessel lumen (this methodology was confirmed by loss of dilatory response to acetylcholine). […] After this, arteriole myogenic responses (i.e., vessel diameter) to increasing luminal pressure were monitored ex vivo in the absence or presence of HS-38. […] This series of steps is repeated in normal Krebs buffer, with the addition of ZIPK inhibitor (i.e., 10 μM HS-38) and finally in Ca^2+ free Krebs (same constitution as normal Krebs with no CaCl2 and added EGTA (2 mM), Data are collected as average vessel diameter over stable region of each step and expressed as a percentage of the maximal passive vessel diameter (120 mmHg, 0Ca^2+) to standardize for variation in size of […]. […]"}, "LC20 monophosphorylation": {"system": "LC20 monophosphorylation", "parameters": "species or system rat"}, "[4]": {"system": "isolated PCA vessels (posterior cerebral artery of the rat)", "assay": "Dilation of isolated PCA vessels previously constricted with 5HT", "from_the_text": "FIG. 47 is a graph of HS-38 concentration versus percent dilation of isolated PCA vessels (posterior cerebral artery of the rat) previously constricted with 5HT.\nZIPK expression differences within different vascular beds may provide distinct pharmacology."}}, "data": [{"smiles": "CC(Sc1nc2c(cnn2-c2cccc(Cl)c2)c(=O)[nH]1)C(N)=O", "note": "(stereo not drawn) [HS38]", "values": [{"measurement": "RLC20 phosphorylation, basal (unstimulated) state", "setting": "RLC20 phosphorylation [1]; 50 μM, p <0.0002, n=8", "result": "significantly decreased"}, {"measurement": "RLC20 phosphorylation, S1P stimulated state", "setting": "RLC20 phosphorylation [1]; S1P 0.25 μM, HS38 50 μM, p <0.004, n=8", "result": "significantly decreased"}, {"measurement": "RLC20 phosphorylation level", "setting": "RLC20 phosphorylation [2]", "result": "significantly reduced"}, {"measurement": "enhanced myogenic tone at low basal luminal pressures", "setting": "[3]", "result": "can be attenuated"}, {"measurement": "levels of LC20 monophosphorylation induced by KCl and Ang II", "setting": "LC20 monophosphorylation", "result": "could attenuate"}, {"measurement": "dilation of vessels previously constricted with 5HT", "setting": "[4]", "result": "induced dilation"}]}]}
